Among the data in patent US9585988B2, “Anchorage devices comprising an active pharmaceutical ingredient” (TYRX, Inc., priority 2010, dated 2017) are concentration and myofibroblast formation values, retold here.

Series [1] can be described thus: Tissue concentration of antibiotic after implantation. It counts as in vivo. The following applies: other: implantation.
Series [2] can be described thus: Pocket concentration of antibiotic after implantation. It counts as in vivo. Conditions: other: implantation.
Series [3] is described as follows: Post implant serum concentration of antibiotic. Conditions: other: implantation. It counts as in vivo.
Another series relates to myofibroblast formation. Conditions: Ajmal et al. (2003); cited from earlier work.
Setting [4] is: 2 h, Left, read-out: Average Tissue concentration.
[5] abbreviates: 2 h, Right, read-out: Average Tissue concentration.
The mark [6] stands for this setting: 6 h, Left, read-out: Average Tissue concentration.
The mark [7] stands for this setting: 6 h, Right, read-out: Average Tissue concentration.
The mark [8] stands for this setting: 24 h, Left, read-out: Average Tissue concentration.
The mark [9] stands for this setting: 24 h, Right, read-out: Average Tissue concentration.
Setting [10] is: after about 2 hours, range worded for embodiments, see Table 7, read-out: tissue concentration.
[11] abbreviates: after about 6 hours, range worded for embodiments, see Table 7, read-out: tissue concentration.
The mark [12] stands for this setting: after about 24 hours, range worded for embodiments, see Table 7, read-out: tissue concentration.
Where [13] appears, read: after about 2 hours, range worded for embodiments, see Table 8.
The mark [14] stands for this setting: after about 6 hours, range worded for embodiments, see Table 8.
Setting [15] is: after about 2 hours, range worded for embodiments, see Table 9.
Setting [16] is: after about 6 hours, range worded for embodiments, see Table 9.
Setting [17] is: after about 24 hours, range worded for embodiments, see Table 9.

Take `CN(C)c1ccc(O)c2c1C[C@H]1C[C@H]3[C@H](N(C)C)C(O)=C(C(N)=O)C(=O)[C@@]3(O)C(O)=C1C2=O` [Minocycline]: the concentration at 2 h in series [1] (setting [4]) is 700 ng/mL; in series [1] (setting [5]), 783 ng/mL; in series [1] (setting [10]), 650 to 800 ng/mL; in series [2] (2 h, Left), 16400 ng/mL; in series [2] (setting [13]), 15000 to 17000 ng/mL; in series [3] (2 h) it was 46.5 ng/mL. This molecule also displayed a concentration at 2 h in series [3] (setting [15]) of 30 to 60 ng/mL. The concentration at 6 h in series [1] (setting [6]) is 2680 ng/mL; in series [1] (setting [7]) it was 2600 ng/mL; in series [1] (setting [11]), 2550 to 2750 ng/mL; in series [2] (6 h, Left), 26800 ng/mL; in series [2] (6 h, Right), 207000 ng/mL; in series [2] (setting [14]), 25000 to 210000 ng/mL. In addition, the concentration at 6 h in series [3] (6 h) was 79.1 ng/mL; in series [3] (setting [16]), 60 to 100 ng/mL. Further, the concentration at 24 h in series [1] (setting [8]) was 1330 ng/mL; in series [1] (setting [9]) it was 1840 ng/mL; in series [1] (setting [12]), 1200 to 1900 ng/mL; in series [3] (24 h), 69.4 ng/mL; in series [3] (setting [17]), 50 to 90 ng/mL.
Consider `O=S(=O)([O-])CCS.[Na+]` [MESNA, sodium 2-mercaptoethane sulfonate], for which the myofibroblast formation entry in the series with myofibroblast formation is listed as “diminish myofibroblast formation”.
In the case of `CO[C@H]1/C=C/O[C@@]2(C)Oc3c(C)c(O)c4c(O)c(c(/C=N/N5CCN(C)CC5)c(O)c4c3C2=O)NC(=O)/C(C)=C\C=C\[C@H](C)[C@H](O)[C@@H](C)[C@@H](O)[C@@H](C)[C@H](OC(C)=O)[C@@H]1C` [Rifampin], the concentration at 2 h was 765 ng/mL in series [1] (setting [4]); 1270 ng/mL in series [1] (setting [5]); 600 to 1400 ng/mL in series [1] (setting [10]); 2020 ng/mL in series [2] (2 h, Left); 16400 ng/mL in series [2] (2 h, Right); 1000 to 20000 ng/mL in series [2] (setting [13]). Further, the concentration at 2 h in series [3] (2 h) was 27.1 ng/mL; in series [3] (setting [15]), 15 to 45 ng/mL. For the same molecule, the concentration at 6 h in series [1] (setting [6]) was 2080 ng/mL; in series [1] (setting [7]), 2210 ng/mL; in series [1] (setting [11]), 1900 to 2300 ng/mL; in series [2] (6 h, Left), 19600 ng/mL; in series [2] (6 h, Right), 100000 ng/mL; in series [2] (setting [14]) it was 15000 to 110000 ng/mL. In addition, the values for the concentration at 6 h in series [3] (6 h) and in series [3] (setting [16]) were 20.8 ng/mL and 10 to 40 ng/mL, respectively. The concentration at 24 h in series [1] (setting [8]) is 4040 ng/mL; in series [1] (setting [9]), 2720 ng/mL; in series [1] (setting [12]), 2600 to 4200 ng/mL; in series [3] (24 h) it was 44.3 ng/mL; in series [3] (setting [17]), 30 to 60 ng/mL.
